In ChEMBL document CHEMBL1144460, “Design, synthesis, and structural analysis of inhibitors of influenza neuraminidase containing a 2,3-disubstituted tetrahydrofuran-5-carboxylic acid core” (Bioorg Med Chem Lett, 2005):
pIC50: −log10 of the molar value.

These molecules were tested against Neuraminidase (Influenza B virus (strain B/Lee/1940), UniProt P03474) (assay: Inhibitory concentration of the compound was determined against neuraminidase B (B/Memphis/3/89) of Influenza virus).
Neuraminidase, sequence (P03474 whole entry): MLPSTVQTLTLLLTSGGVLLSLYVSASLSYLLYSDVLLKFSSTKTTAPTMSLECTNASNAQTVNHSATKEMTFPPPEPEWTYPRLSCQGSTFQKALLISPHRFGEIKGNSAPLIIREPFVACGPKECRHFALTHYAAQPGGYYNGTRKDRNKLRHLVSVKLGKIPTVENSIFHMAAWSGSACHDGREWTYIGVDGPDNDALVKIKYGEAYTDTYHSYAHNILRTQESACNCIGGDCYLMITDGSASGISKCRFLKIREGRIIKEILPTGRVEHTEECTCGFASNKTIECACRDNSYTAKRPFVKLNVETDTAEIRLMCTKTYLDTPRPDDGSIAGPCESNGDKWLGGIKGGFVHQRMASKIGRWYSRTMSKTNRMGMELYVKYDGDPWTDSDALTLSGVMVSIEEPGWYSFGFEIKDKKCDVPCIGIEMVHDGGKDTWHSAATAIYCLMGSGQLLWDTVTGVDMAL
COC(=O)[C@@H]1C[C@H](C(=O)O)O[C@H]1[C@H](CC(C)C)NC(C)=O was tested, and the pIC50 was 6.02.
With CC(=O)N[C@@H](CC(C)C)[C@@H]1O[C@@H](C(=O)O)C[C@H]1c1c[nH]cn1 the pIC50 was 6.00.
With COC(=O)[C@@H]1C[C@H](C(=O)O)N[C@H]1[C@H](CC(C)C)NC(C)=O the pIC50 was 7.25.
